Experimental data as given in article PMC8197855, “Peptide/β-Peptoid Hybrids with Activity against Vancomycin-Resistant Enterococci: Influence of Hydrophobicity and Structural Features on Antibacterial and Hemolytic Properties” (International Journal of Molecular Sciences, 2021).
Converted amounts (≈) assume the structure as drawn.

Legend:
[1] = tested on: E. faecium 1798; test: microbe, parasite or virus in culture; format: cell-based, Enterococcus faecium; settings: for Minimum inhibitory concentration: 1798, 24 h
Procedure: (§1) Overnight cultures of the enterococcal isolates were diluted in physiological saline (0.9% NaCl) to reach a turbidity of 0.5 McFarland units (Sensititre® nephelometer and the Sensititre® McFarland Standard). Bacterial suspensions were adjusted to 5 × 10^5 CFU/mL in MHB II or BHI broth containing two-fold dilutions of peptidomimetics or conventional antibiotics in a final volume of 100 µL. The plates were incubated for 24 h at 37 °C without shaking. […] All experiments were performed in three biological replicates.

[2] = tested on: E. faecium 2961; test: microbe, parasite or virus in culture; format: cell-based, Enterococcus faecium; settings: for Minimum inhibitory concentration: 2961, 24 h
Procedure: as §1

[3] = tested on: E. faecium 3978; test: microbe, parasite or virus in culture; format: cell-based, Enterococcus faecium; settings: for Minimum inhibitory concentration: 3978, 24 h
Procedure: as §1

[4] = tested on: E. faecium D344R; test: microbe, parasite or virus in culture; format: cell-based, Enterococcus faecium; settings: 24 h; for Minimum inhibitory concentration: E. faecium D344R, human clinical isolate
Procedure: as §1

[5] = tested on: E. faecium ATCC 19434; test: microbe, parasite or virus in culture; format: cell-based, Enterococcus faecium; settings: for Minimum inhibitory concentration: ATCC 19434, 24 h
Procedure: as §1, with “replicates. […]” for “replicates.”

[6] = tested on: E. faecalis 38262; test: microbe, parasite or virus in culture; format: cell-based, Enterococcus faecalis; settings: for Minimum inhibitory concentration: 38262, 24 h
Procedure: as §1

[7] = tested on: E. faecalis 39002; test: microbe, parasite or virus in culture; format: cell-based, Enterococcus faecalis; settings: for Minimum inhibitory concentration: 39002, 24 h
Procedure: as §1

[8] = Hydrophobicity by analytical RP-HPLC (% MeCN at peak elution); format: physicochemical
Procedure: Water was filtered by using an Evoqua LaboStar PRO TWF Ultra Pure Water System prior to use in high-performance liquid chromatography (HPLC). The retention time for each peptidomimetic was determined by analytical HPLC using a Phenomenex Luna C18(2) HST column (100 mm × 3 mm; particle size: 2.5 μm; pore size: 100 Å) on a Shimadzu Prominence and Shimadzu Nexera system using an aqueous MeCN gradient with 0.1% trifluoroacetic acid (TFA) added (eluent A: 5:95 MeCN–H2O + 0.1% TFA; eluent B: 95:5 MeCN–H2O + 0.1% TFA); a flow rate of 0.5 mL/min was used. For the elution of peptidomimetics, a linear gradient of 0% to 60% B over 10 min was used with UV detection at λ = 220 nm. The percentage MeCN at peak elution was calculated from the retention time (tR) by using the following formula:%MeCN = [0.95 × 0.6 × tR/10 + 0.05 × (1 − 0.6 × tR/10)] × 100%

[9] = Hemolytic activity; format: cell-based, human; settings: human, human red blood cells (washed, 1% suspension), 37 °C, 1% red blood cell suspension
Procedure: (§2) A suspension of hRBCs (Single-donor human red blood cells—washed; catalogue No. IPLA-W3 from Innovative researchTM) was washed three times with PBS buffer and centrifuged for 5 min at 2500 rpm. A two-fold serial dilution of compounds in PBS buffer was prepared. Plates (conical-bottomed 96-well plates) with 3 replicate wells per dilution, containing 1% red blood cell suspension, were prepared and dosed with the test compound to achieve a final concentration of 400 μg/mL in a total volume of 100 μL. The plates were incubated (37 °C) for 60 min with mild agitation, and then the cells were pelleted by centrifugation at 1500 rpm for 5 min. Then, the supernatants (50 μL) were transferred to a fresh 96-well plate, and then the concentration of hemoglobin was detected by measuring the OD at 405 nm. The OD of cells incubated with 1% SDS achieved 100% hemolysis, while the OD of cells incubated with PBS buffer achieved 0% hemolysis. The concentration tested was 400 μg/mL (only average values are stated in Table 3). The percent hemolysis was calculated by using the formula:Hemolysis(%) = 100 × [(Asample − Aneg.control)/(Apos. control − Aneg.control)]

[10] = tested on: human red blood cells; test: Hemolytic activity; format: cell-based; settings: 60 min, 37 °C, 1% red blood cell suspension
Procedure: as §2

[11] = tested on: HepG2 cell line ATCC HB-8065; test: Effect on HepG2 cell viability (MTT assay); format: cell-based, human; settings: 48 h
Procedure: The effect of peptidomimetics on mammalian cell viability was determined on the HepG2 cell line ATCC HB-8065. In brief, HepG2 cells were seeded into flat-bottom 96-well plates at a concentration of 5000 cells per well. The cells were incubated for 24 h in a humidified incubator (5% CO2, 37 °C). Subsequently, the medium was removed, and the cells were incubated for 48 h in a humidified incubator (5% CO2, 37 °C) with peptidomimetics in serial dilutions. An MTT assay was then performed; in brief, after incubation with the test compounds, the culture medium was removed and fresh medium with 0.2 mg/mL MTT was then added into each well. After incubation (3 h, 37 °C, 5% CO2), the medium with MTT was removed, and 200 μL dimethyl sulfoxide was added at once to each sample. The absorbance of MTT was measured using the spectrophotometer TECAN Infinite M1000 at 540 nm. The relative viability was calculated by using the formula:ODtreated cells × 100/ODcontrol cells
The IC50 values were calculated using the program Graph Pad Prism 5.0. For all compounds, the test range was 10–1280 μg/mL.

[12] = tested on: E. faecium isolates; format: cell-based, Enterococcus faecium; settings: 24 h
Procedure: as §1

[13] = tested on: E. faecalis ATCC 29212; test: microbe, parasite or virus in culture; format: cell-based, Enterococcus faecalis; settings: for Minimum inhibitory concentration: ATCC 29212, 24 h
Procedure: as §1, with “replicates. […]” for “replicates.”

[14] = tested on: E. faecalis isolates; format: cell-based, Enterococcus faecalis; settings: 24 h
Procedure: as §1

[15] = tested on: E. faecium 1798; test: Broth checkerboard assay with conventional antibiotics; format: cell-based, Enterococcus faecium; settings: antibiotic alone (-); BHI broth
Procedure: (§3) The strain culture preparation and final volume were the same as in the MIC assay. […] The plates were incubated for 24 h at 37 °C without shaking. […] All experiments were performed in two biological replicates.
(§4) To evaluate the effect of the combinations, the fractional inhibitory concentration index (FICI) was calculated for each combination according to:ΣFIC = FICA + FICB = (CA/MICA) + (CB/MICB)
(§5) The drug interaction was scored as follows: synergy—FICI ≤ 0.5; no interaction—FICI > 0.5–4; antagonism—FICI > 4 [40].

[16] = tested on: E. faecium 2961; test: as above; format: cell-based, Enterococcus faecium; settings: antibiotic alone (-); BHI broth
Procedure: as §3, §4, §5

[17] = tested on: E. faecium ATCC 19434; test: as above; format: cell-based, Enterococcus faecium; settings: antibiotic alone (-); BHI broth
Procedure: as §3, §4, §5

[18] = tested on: E. faecalis ATCC 29212; test: as above; format: cell-based, Enterococcus faecalis; settings: antibiotic alone (-); BHI broth
Procedure: as §3, §4, §5

SMILES | Minimum inhibitory concentration [1] [µg/mL] | Minimum inhibitory concentration [2] [µg/mL] | Minimum inhibitory concentration [3] [µg/mL] | Minimum inhibitory concentration [4] [µg/mL] | Minimum inhibitory concentration [5] [µg/mL] | Minimum inhibitory concentration [6] [µg/mL] | Minimum inhibitory concentration [7] [µg/mL] | Hydrophobicity, Luna C18(2) HST (0–60% B; 10 min), retention converted into % MeCN [8] [% MeCN] | hemolysis at 60 min, 400 µg/mL [9] [%] | HepG2 IC50 [11] [µg/mL] | MIC (range or typical value) against E. faecium [12] [µg/mL] | Minimum inhibitory concentration [13] [µg/mL] | also measured
CC(=O)N[C@@H](CCCCNC(=N)N)C(=O)N(CCC(=O)N[C@@H](CCCCNC(=N)N)C(=O)N(CCC(=O)N[C@@H](CCCCNC(=N)N)C(=O)N(CCC(=O)N[C@@H](CCCCNC(=N)N)C(=O)N(CCC(=O)N[C@@H](CCCCNC(=N)N)C(=O)N(CCC(=O)N[C@@H](CCCCNC(=N)N)C(=O)N(CCC(=O)N[C@@H](CCCCNC(=N)N)C(=O)N(CCC(=O)N[C@@H](CCCCNC(=N)N)C(=O)N(CCC(N)=O)Cc1ccccc1)Cc1ccccc1)Cc1ccccc1)Cc1ccccc1)Cc1ccccc1)Cc1ccccc1)Cc1ccccc1)Cc1ccccc1 [Compound 1, Ac-[hArg-βNPhe]8-NH2] | 2 (≈ 0.738 µM) | 2 (≈ 0.738 µM) | 4 (≈ 1.48 µM) | 4 (≈ 1.48 µM) | 8 (≈ 2.95 µM) | 16 (≈ 5.9 µM) | 32 (≈ 11.8 µM) | 41.8 | ~6 | 9 | 2 to 8 |  | Hemolysis (at 400 µg/mL) [10]: 6.1%
C[C@@H](c1ccccc1)N(CCC(N)=O)C(=O)[C@H](CCCCN)NC(=O)CCN(C(=O)[C@H](CCCCNC(=N)N)NC(=O)CCN(C(=O)[C@H](CCCCN)NC(=O)CCN(C(=O)[C@H](CCCCNC(=N)N)NC(=O)CCN(C(=O)[C@H](CCCCN)NC(=O)CCN(C(=O)[C@H](CCCCNC(=N)N)NC(=O)CCN(C(=O)[C@H](CCCCN)NC(=O)CCN(C(=O)[C@@H](N)CCCCNC(=N)N)[C@@H](C)c1ccccc1)[C@@H](C)c1ccccc1)[C@@H](C)c1ccccc1)[C@@H](C)c1ccccc1)[C@@H](C)c1ccccc1)[C@@H](C)c1ccccc1)[C@@H](C)c1ccccc1 [Compound 4, H-[hArg-βNspe-Lys-βNspe]4-NH2] | 4 (≈ 1.53 µM) | 4 (≈ 1.53 µM) | 4 to 8 | 4 (≈ 1.53 µM) | 8 (≈ 3.06 µM) | 16 (≈ 6.12 µM) | 32 (≈ 12.2 µM) | 43.6 | 2.6 | 42 | 4 to 8 | >32 | 
C[C@@H](c1ccccc1)N(CCC(=O)N[C@@H](CCCCN)C(=O)N(CCC(=O)N[C@@H](CCCCNC(=N)N)C(=O)N(CCC(=O)N[C@@H](CCCCN)C(=O)N(CCC(=O)N[C@@H](CCCCNC(=N)N)C(=O)N(CCC(=O)N[C@@H](CCCCN)C(=O)N(CCC(N)=O)[C@@H](C)c1ccccc1)[C@@H](C)c1ccccc1)[C@@H](C)c1ccccc1)[C@@H](C)c1ccccc1)[C@@H](C)c1ccccc1)C(=O)[C@H](CCCCNC(=N)N)NC(=O)C=Cc1ccccc1 [Compound 6, Cinn-[hArg-βNspe-Lys-βNspe]3-NH2] | 4 (≈ 1.91 µM) | 4 (≈ 1.91 µM) | 4 (≈ 1.91 µM) | 4 (≈ 1.91 µM) | 8 (≈ 3.82 µM) | 16 (≈ 7.64 µM) | 16 (≈ 7.64 µM) | 45.9 | 15.7 | 42 | 4 to 8 | 16 (≈ 7.64 µM) | MIC (range) against E. faecalis [14]: 16 µg/mL (≈ 7.64 µM)
CN[C@H](CC(C)C)C(=O)N[C@H]1C(=O)N[C@@H](CC(N)=O)C(=O)N[C@H]2C(=O)N[C@H]3C(=O)N[C@H](C(=O)N[C@H](C(=O)O)c4cc(O)cc(O)c4-c4cc3ccc4O)[C@H](O)c3ccc(c(Cl)c3)Oc3cc2cc(c3O[C@@H]2O[C@H](CO)[C@@H](O)[C@H](O)[C@H]2O[C@H]2C[C@](C)(N)[C@H](O)[C@H](C)O2)Oc2ccc(cc2Cl)[C@H]1O [Vancomycin, vancomycin] |  |  |  |  |  |  |  |  |  |  |  |  | MIC ([1]; Enterococcus faecium, 1798, 24 h, read-out: Minimum inhibitory concentration): > 256 µg/mL; MIC ([2]; Enterococcus faecium, 2961, 24 h, read-out: Minimum inhibitory concentration): > 256 µg/mL; MIC ([3]; Enterococcus faecium, 3978, 24 h, read-out: Minimum inhibitory concentration): 16 µg/mL (≈ 11 µM); MIC ([4]; Enterococcus faecium, D344R, read-out: Minimum inhibitory concentration): 2 µg/mL (≈ 1.38 µM); MIC ([5]; Enterococcus faecium, ATCC19434, 24 h, read-out: Minimum inhibitory concentration): 1 to 2 µg/mL (≈ 0.69 to 1.38 µM); MIC ([13]; Enterococcus faecalis, ATCC29212, 24 h, read-out: Minimum inhibitory concentration): 2 to 4 µg/mL (≈ 1.38 to 2.76 µM); MIC ([6]; Enterococcus faecalis, 38262, 24 h, read-out: Minimum inhibitory concentration): 1 µg/mL (≈ 0.69 µM); MIC ([7]; Enterococcus faecalis, 39002, 24 h, read-out: Minimum inhibitory concentration): 1 µg/mL (≈ 0.69 µM); MIC of antibiotic [15]: > 256 µg/mL; MIC of antibiotic [16]: > 256 µg/mL; MIC of antibiotic [17]: 1 to 2 µg/mL; MIC of antibiotic [18]: 2 to 4 µg/mL
